Experimental data reported in patent publication US7282491B2, “Prokaryotic proteasomal proteases of Mycobacterium tuberculosis (MTB) as targets for antibiotic therapy” (Cornell Research Foundation, Inc., priority 2002, dated 2007).

What was measured:
[1] = system: Rv2115c and Rv2097c mutants; type: cell-based, Mycobacterium tuberculosis

CC(C)C[C@H](NC(=O)[C@H](Cc1cccc2ccccc12)NC(=O)N1CCOCC1)B(O)O [MLN-273, N-[4-morpholine]carbonyl-β-[1-naphthyl]-L-alanine-L-leucine boronic acid]
growth of Rv2115c and Rv2097c mutants under standard culture conditions [1]: suppressed the growth of these mutants to same extent as for wt Mtb
augmentation of the toxicity of nitrite against the Rv2115c mutant (Rv2115c-mutant Mtb): augmented the toxicity of nitrite against the Rv2115c mutant
